For 1 compound, IC50 results are on record in paper PMC6291754 (Frontiers in Microbiology, 2018).

Common to all, as to assay: microbe, parasite or virus in culture
One test relates to A(H1N1)pdm09 viruses. It counts as cell-based, influenza A(H1N1)pdm09 virus. To be noted: Influenza A virus, H1N1, read-out: median IC50.
Test [1] relates to B/Yamagata-lineage viruses. It counts as cell-based. To be noted: Influenza B virus, read-out: median IC50.
Test [2] has as its system B/Victoria-lineage viruses. In kind it is cell-based. The following applies: Influenza B virus, read-out: median IC50.
In another test the test system is A(H3N2) viruses. It counts as cell-based. To be noted: Influenza A virus, H3N2, read-out: median IC50.

By IC50 is commonly meant the concentration at which inhibition is half-maximal. Regarding `O=C1c2c(O)c(=O)ccn2N([C@@H]2c3ccccc3SCc3c2ccc(F)c3F)[C@@H]2COCCN12` [Baloxavir, baloxavir acid], the IC50 in the test on A(H1N1)pdm09 viruses was 0.28 nM; in test [1], 2.43 nM; in test [2], 3.42 nM; in the test with A(H3N2) viruses, 0.16 nM.
